In the NIST ThermoML archive (doi:10.1021/je201009c):

Assay: refractive index (Na D-line) (dimensionless); xn = mol fraction of the nth substance listed
Conditions: 100.8 kPa, Liquid, Standard Abbe refractometry

CC(=O)OCc1ccccc1 [benzyl ethanoate] + CCO
refractive index
Conditions | 293.15 K | 303.15 K | 313.15 K | 323.15 K
x2 = 0 | 1.50245 | 1.49776 | 1.49309 | 1.48834
x2 = 0.0502 | 1.49958 | 1.49479 | 1.49006 | 1.48521
x2 = 0.1 | 1.49646 | 1.49168 | 1.48693 | 1.48205
x2 = 0.1498 | 1.49316 | 1.48838 | 1.48362 | 1.47874
x2 = 0.1998 | 1.48968 | 1.48491 | 1.48007 | 1.47517
x2 = 0.2499 | 1.48589 | 1.48118 | 1.47629 | 1.47143
x2 = 0.2998 | 1.4819 | 1.47715 | 1.47228 | 1.46739
x2 = 0.35 | 1.4776 | 1.47284 | 1.46794 | 1.46309
x2 = 0.4 | 1.47289 | 1.46818 | 1.46327 | 1.45847
x2 = 0.4501 | 1.46787 | 1.46316 | 1.45826 | 1.45346
x2 = 0.5 | 1.46245 | 1.45772 | 1.45286 | 1.44807
x2 = 0.5499 | 1.45652 | 1.45179 | 1.44703 | 1.44215
x2 = 0.6 | 1.44996 | 1.44531 | 1.44052 | 1.43561
x2 = 0.65 | 1.44279 | 1.43815 | 1.43339 | 1.42851
x2 = 0.7 | 1.43481 | 1.43018 | 1.42552 | 1.42067
x2 = 0.7499 | 1.42603 | 1.42142 | 1.41682 | 1.41198
x2 = 0.7999 | 1.41623 | 1.41163 | 1.40711 | 1.40231
x2 = 0.85 | 1.40518 | 1.40062 | 1.39617 | 1.39132
x2 = 0.9 | 1.39263 | 1.38811 | 1.38375 | 1.37895
x2 = 0.95 | 1.3782 | 1.37384 | 1.36951 | 1.36489
